Assay results reported in US11414377B2, “Modulator of metabotropic and ionotropic transmembrane receptors and use thereof” (IBD THERAPEUTICS LLC, priority 2018, dated 2022).

Legend:
[1] = tested on: balb/c male mice; test: Acute pain response model, administration of mustard oil in mice; format: in vivo
Experimental: The study of the activity of the compound on the acute pain response model was conducted using a standard procedure (Laird M. A., Martinez-Caro L., Garcia-Nicas E., Cervero F. A new model of visceral pain and referred hyperalgesia in the mouse//J. Pain 92 (2001). P. 335-342).
The study was carried out on balb/c male mice, the individual weight of which deviates from the mean value within the sex of no more than ±10%. First, the mice were lightly anesthetized (after 24 hours of fasting). Then 1% solution of mustard oil in physiological solution was introduced to the animals at 4 cm in depth with the help of catheter 3.5 F. The solvent was introduced to the healthy control. 5 minutes after the introduction of the mustard oil, the presence of pain in the animal (a number of abdominal lickings, abdominal wall abductions, lower abdominal deformity to the floor, abdominal distension) was evaluated during the first 20 minutes. Compound I was administered once intragastrically 1 hour before the administration of mustard oil. The obtained data were checked using the Grubb's test for the presence of the largest or smallest abnormal observation (ejection) in the sample. Values determined “to be eliminated” in this test were not used for further assay. For all data, descriptive statistics was used: a mean value (M) and standard error of the mean value (m) were counted up. The normality of distribution of the values obtained in the course of the experiment was checked with the aid of the Kolmogorov-Smirnov test. In the case of normal distribution, Student's t-test (t-test) was used to evaluate the inter-group distinctions. In the case of the distribution that is other than the normal one the Kruskall-Wallis test (with Dann's post hoc test) was used for the comparison of several groups. Distinctions were determined at 5% at a level of confidence.

[2] = tested on: rats; test: Stress-induced defecation model in rats; format: in vivo; conditions: 40 minutes restraint, control 2.65 ± 0.35, intact 0.24 ± 0.05
Experimental: The study of the activity of Compound I in the stress-induced defecation model was carried out by a standard procedure (Taguchi R., Shikata K., Furuya Y, Hirakawa T., Ino M., Shin K., Shibata H. Selective corticotropin-releasing factor 1 receptor antagonist E2508 reduces restraint stress-induced defecation and visceral pain in rat models//Psychoneuroendocrinology. 2017. P. 110-115).
Rats were adapted to a room in which the experiment was conducted for 24 hours. The study was carried out on satisfied rats. Compound I was administered once, intragastrically. After 1 hour, the rat was placed in the cloth so that the front paws were pressed to the body. In such a form, the rat was placed into the individual cage on the gating and was left for 40 minutes. Summarily the whole of excrement released during the observation period of 40 minutes then was weighed.
For all data, descriptive statistics is applied: the arithmetic mean (M) and the standard error of the mean (m) are counted up. The normality of distribution of the values obtained in the course of the experiment was checked with the aid of the Shapiro-Wilk test. In the case of normal distribution, 1-way ANOVA (with […] post hoc test) was used to evaluate the inter-group distinctions. In the case of the distribution that is other than normal one, the […] was used for the comparison of several groups.

[3] = tested on: male and female mice; test: Acute toxicity at single administration, mice; format: in vivo; conditions: for Body weight gain / Death of animals: male and female; for Death of animals: 14 days observation
Experimental: The acute toxicity study was performed on 24 male and 24 female rats, and also on 24 male and 24 female mice. Before the administration of the Compound I, the body weight of the animals was recorded, after 1 hour of the administration, the state of the experimental animals was observed. Then, the body weights of rats and mice were recorded daily for 14 days after the administration of the substance, and the examination was carried out to detect the cases of death and abnormality in the state of the animals.
Compound I was administered to rats and mice intragastrically at a dose of 5000 mg/kg, intraperitoneally—at a dose of 2000 mg/kg. Control groups (female and male objects) were received a solvent (0.1% Tween-80 solution in water).

[4] = tested on: male balb/c mice; test: Motility of the gastrointestinal tract in vivo (activated carbon transit); conditions: for The time of ejection of activated carbon: intact 73.8 ± 3.7
Experimental: The effect of Compound I on the motility of the GIT was studied by a standard procedure (Li Y. Y., Li Y. N., Ni J. B., Chen C. J., Lv S., Chai S. Y., Wu R. H., Yüce B., Storr M. Involvement of cannabinoid-1 and cannabinoid-2 receptors in septic ileus//Neurogastroenterol Motil. 2010. V. 22. P. 350-388). The study was carried out on male balb/c mice, the individual weight of which deviates from the mean value within the sex of no more than ±20%. The animals were given the intragastric administration of a solution of activated carbon (50 mg/ml, in 10 ml/kg) and the rate (in minutes) of the movement of the activated carbon on the intestine of animals was evaluated. Compounds I was administered once intragastrically 1 hour prior to administration of activated carbon. As the comparative preparations, hyoscin butyl bromide (Buscopan) at a dose of 3 mg/kg, trimebutine (Trimedat) at a dose of 33 mg/kg, mebeverine (Duspatalin) at a dose of 30 mg/kg were used. The obtained data were checked using the Grubb's test for the presence of the largest or smallest abnormal observation (ejection) in the sample. Values determined “to be eliminated” in this test were not used for further assay. For all data, descriptive statistics was used: a mean value (M) and standard error of the mean value (m) were counted up. The normality of distribution of the values obtained in the course of the experiment was checked with the aid of the Kolmogorov-Smirnov test. In the case of normal distribution, Student's t-test (t-test) was used to evaluate the inter-group distinctions. In the case of the distribution that is other than the normal one for the comparison of several groups, the Kruskall-Wallis test (with Dann's post hoc test) was used. Distinctions were determined at 5% at a level of confidence.

O=C(Cc1ccc(O)cc1)N[C@@H](Cc1ccccc1)C(=O)NCCc1ccccc1 [Compound I, 2-phenylethylamide N-(p-hydroxyphenylacetyl)phenylalanine]
Number of pain sensations, 0-20 min ([1]; 15 mg/kg once intragastrically 1 hour prior to mustard oil, control 10.4 ± 1.59, intact 2.2 ± 0.33): 2.56 ± 0.78 & | Number of pain sensations, 0-20 min ([1]; 1.5 once intragastrically 1 hour prior to mustard oil, control 10.4 ± 1.59): 14.8 ± 3.01 | Number of pain sensations, 0-20 min ([1]; 3 once intragastrically 1 hour prior to mustard oil, control 10.4 ± 1.59): 8.56 ± 0.94 | Number of pain sensations, 0-20 min ([1]; 7.5 once intragastrically 1 hour prior to mustard oil, control 10.4 ± 1.59): 15.1 ± 1.7 | Weight of excrement ([2]; 0.3 mg/kg once intragastrically): 2.35 ± 0.35 g | Weight of excrement ([2]; 1 mg/kg once intragastrically): 1.43 ± 0.12 g | Weight of excrement ([2]; 3 mg/kg once intragastrically): 1.00 ± 0.06& g | Differences in the spontaneous behaviour, responses to the caused reactions ([3]; intragastrically 5000 mg/kg, intraperitoneally 2000 mg/kg): not observed | Body weight gain ([3]; intragastrically 5000 mg/kg): lag in body weight gain | Death of animals ([3]; intragastrically 5000 mg/kg): did not cause death of animals | Body weight gain ([3]; intraperitoneally 2000 mg/kg): lag in body weight gain | Death of animals ([3]; intraperitoneally 2000 mg/kg): did not cause death of animals | The time of ejection of activated carbon ([4]; 1.5 mg/kg once intragastrically 1 hour prior to activated carbon): 108.7 ± 9.28 min | The time of ejection of activated carbon ([4]; 3 mg/kg once intragastrically 1 hour prior to activated carbon): 130.4 ± 11.42 min | The time of ejection of activated carbon ([4]; 7.5 mg/kg once intragastrically 1 hour prior to activated carbon): 123.4 ± 11.43 min | The time of ejection of activated carbon ([4]; 15 mg/kg once intragastrically 1 hour prior to activated carbon): 147.6 ± 8.94 min | Increase of the time of activated carbon evacuation ([4]; 1.5-15 mg/kg intragastrically, versus intact): 1.5-2 times
